According to patent US20220354764A1, “METHODS FOR PROMOTING HAIR GROWTH” (Follica, Inc., priority 2018, published 2022):

Experiments:
[1] = Minoxidil blood serum concentration after needling device treatment plus 2%/5% MTS (Example 1); format: in vivo, human
Description: A multicenter randomized study was conducted to assess the safety and efficacy of treatment methods using a needling device in conjunction with minoxidil in adult males with androgenetic alopecia (AGA). The study involved 14 subjects, male, age 18-40 years, with a diagnosis of androgenetic alopecia. Data for 46 additional subjects is being gathered. The subjects were randomized and then completed treatment across 12 weeks (total of 3, 6, or 12 treatments with the needling device per randomization assignment, n=20 per arm). A final evaluation was conducted on Day 85 with no additional follow up required.
On Day 0, subjects were randomized to receive treatment with the needling device on a weekly (12 treatments), bi-weekly (6 treatments), or monthly (once every 4 weeks, for 3 total treatments) basis for 12 weeks, in a 1:1:1 ratio according to a centrally maintained randomization table. Treatment of the vertex (including transitional areas) with the needling device was initiated on Day 1.
Subjects in the monthly arm received needling device treatment once every 4 weeks, for 3 procedures total (e.g., needling device treatment on Days 1, 29, 57). Subjects in the bi-weekly arm received needling device treatment once every 2 weeks, for 6 procedures total (e.g., needling device treatment on Days 1, 15, 29, 43, 57, and 71). Subjects in the weekly arm received needling device treatment once every week, for 12 procedures total (e.g., needling device treatment on Days 1, 8, 15, 22, 29, 36, 43, 50, 57, 64, 71, and 78).
During needling treatments, the translation speed of the device, which is the speed at which the needling device was glided over the affected skin area, was 2 cm/second, while keeping the device perpendicular to the surface to help achieve a needle strike of 0.8 mm (+/−0.2 mm) micro-needling depth. The device needle array has 12 needles and the number of array oscillations per second was set at 120. The treatment width was 0.9 cm. Two overlapping passes were made in vertical and horizontal directions. As a result, 1600 needle strikes per cm^2 were performed. The micro-needling device was glided across the affected area of the skin such that each pass across the area of skin aligned with the prior pass across the skin, without gaps of skin between the passes, in a “mow the lawn” approach. Each pass of the micro-needling device started with a gliding start and a smooth retraction of the device from the skin area following each pass. The micro-needling device was applied to the skin area with consistent, light pressure, allowing the device to glide along the skin. The configuration of needles in the needle array consists of 2 offset rows of 6 microneedles.
A post-treatment visit was required following each subject's first treatment with the needling device across all study arms to confirm wound closure. The post-treatment visit was performed 24-36 hours following the first treatment with the needling device. If adequate wound closure and skin normality was not achieved, the subject would return for a second post-treatment visit 24-36 hours following the first post-treatment visit. Once adequate wound closure was confirmed, subjects were provided study drug to be applied in accordance with the instructions provided herein (vertex, including transitional areas). The very first application of study drug was performed in-clinic during the first post-treatment visit in which wound closure is confirmed. […]

[2] = test system: adult males with androgenetic alopecia (AGA); assay: Hair count by macrophotography after needling device treatment plus minoxidil (Example 1); format: in vivo, human; conditions: needling device plus 2%/5% MTS, 12 weeks; comparison: 12% increase in Olsen 2002 and 2007
Excerpt: A macrophotography procedure as referred to herein includes identifying the designated photography site, clipping hair within targeted photography site to a length of 1 mm, and creating a needlestick tattoo in the center of the targeted photography site for future orientation (pressure was applied until any bleeding stops), mapping the position of the tattoo, and recording the measurements on the provided documentation. The procedure further includes using the tattoo as a reference point take the first Baseline photograph without the contact plate, and again, using the tattoo as a reference point, performing remaining Baseline photography with the contact plate. From the identified designated photography site, the width of each hair is determined using an electronic caliber measurement. All hairs greater than […] are classified as terminal hairs. […]
A macrophotography procedure as described above was carried out for each subject, using a single, circular 1.9 cm^2 site in the leading edge of an actively balding area of the vertex as the designated photography site. Total Area Hair Count (TAHC), Target Area Hair Width (TAHW) and Target Area Hair Density/Darkness (TAHD) were assessed via quantitative image analysis to determine non-vellus hair count (primary and secondary endpoint) and total hair count (non-vellus and vellus hair, secondary endpoint). […]

Structure (SMILES): Nc1cc(N2CCCCC2)nc(N)[n+]1[O-] [minoxidil]
- serum level average, Day 1 ([1]; Day 1, needling device plus MTS regimen): 1.29 ng/mL
- serum level average, Day 29 ([1]; Day 29, needling device plus MTS regimen): 0.99 ng/mL
- serum level average, Day 57 ([1]; Day 57, needling device plus MTS regimen): 0.79 ng/mL
- serum level average, Day 85 ([1]; Day 85, final study visit, needling device plus MTS regimen): 0.65 ng/mL
- maximum serum level recorded in the study ([1]; individual maximum, needling device plus 2%/5% MTS step-up): 5.5 ng/mL
- subjects showing an increase in non-vellus target area hair count greater than prior large minoxidil studies [2]: 79%
